The numbers were not newly measured in patent US20240400534A1, “CHEMICAL TOOLS FOR DRUG TARGET IDENTIFICATION AND CHARACTERIZATION” (Dana-Farber Cancer Institute, Inc., priority 2021, published 2024), which cites them from elsewhere.

The data set deals with USP7 (Homo sapiens, UniProt Q93009). To be noted: selective covalent inhibitor of the DUB USP7.
Chain of USP7 (Q93009 whole entry): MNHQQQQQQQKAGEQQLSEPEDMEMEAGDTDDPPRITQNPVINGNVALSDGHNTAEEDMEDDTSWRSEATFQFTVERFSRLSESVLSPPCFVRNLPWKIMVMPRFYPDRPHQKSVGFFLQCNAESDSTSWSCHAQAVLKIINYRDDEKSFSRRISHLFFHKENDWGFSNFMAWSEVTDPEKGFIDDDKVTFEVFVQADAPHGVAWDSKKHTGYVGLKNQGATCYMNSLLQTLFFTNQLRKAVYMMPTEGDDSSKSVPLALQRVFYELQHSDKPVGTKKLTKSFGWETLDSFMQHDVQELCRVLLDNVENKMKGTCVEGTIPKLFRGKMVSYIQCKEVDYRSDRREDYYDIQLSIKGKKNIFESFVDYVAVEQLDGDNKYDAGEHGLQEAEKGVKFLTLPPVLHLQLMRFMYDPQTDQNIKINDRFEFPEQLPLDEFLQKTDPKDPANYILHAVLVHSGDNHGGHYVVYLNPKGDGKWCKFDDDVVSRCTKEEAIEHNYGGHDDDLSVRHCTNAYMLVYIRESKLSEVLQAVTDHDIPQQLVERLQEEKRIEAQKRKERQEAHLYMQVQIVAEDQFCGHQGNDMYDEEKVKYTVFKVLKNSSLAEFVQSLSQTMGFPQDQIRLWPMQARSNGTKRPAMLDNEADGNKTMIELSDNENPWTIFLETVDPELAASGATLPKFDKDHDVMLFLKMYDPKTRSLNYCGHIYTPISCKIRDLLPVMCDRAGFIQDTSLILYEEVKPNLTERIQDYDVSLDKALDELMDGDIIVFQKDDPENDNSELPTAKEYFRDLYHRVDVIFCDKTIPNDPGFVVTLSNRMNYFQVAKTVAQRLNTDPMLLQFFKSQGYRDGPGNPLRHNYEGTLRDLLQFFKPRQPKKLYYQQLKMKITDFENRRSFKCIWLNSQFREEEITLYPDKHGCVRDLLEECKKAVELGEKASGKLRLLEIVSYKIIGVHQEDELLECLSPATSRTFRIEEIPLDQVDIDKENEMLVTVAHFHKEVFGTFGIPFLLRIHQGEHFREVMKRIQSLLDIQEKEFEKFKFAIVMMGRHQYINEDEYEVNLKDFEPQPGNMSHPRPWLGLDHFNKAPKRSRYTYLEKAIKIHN

For the compound `CN1CCN(CCC(=O)Nc2ccc3c(=O)n(CC4(O)CCN(C(=O)[C@@H](CCCNC(=O)c5ccc6c(Cl)c7c(nc6c5)CCCC7)Cc5ccccc5)CC4)cnc3c2)CC1` [XL177A], the IC50 was 0.3 nM.
